Patent publication US20040186274A1, “Methylation of histone h4 at arginine 3” (priority 2001, published 2004)

Tested on: H4-Arg 3 methylation in HeLa cells
Assay: TSA treatment of HeLa cells, methylation state of H4-Arg 3 in isolated core histones
Format: cell-based, human
Conditions: twelve hours after TSA treatment, hyperacetylated H4
Procedure: To determine whether this inhibition occurs in vivo, HeLa cells were treated with a histone deacetylase inhibitor, Tricostatin A (TSA), to induce hyperacetylation. Twelve hours after TSA treatment, core histones were isolated, and the methylation state of H4-Arg 3 was analyzed. […] Therefore, hyperacetylation on lysine residues correlates with hypomethylation of H4 Arg 3.

With `CC(/C=C/C(=O)NO)=C\[C@@H](C)C(=O)c1ccc(N(C)C)cc1` [Tricostatin A] the “H4 Arg 3 methylation level” value was “almost undetectable”.
